We go through 2 substances from patent US8847000B2 (priority 2006, dated 2014).

In this assay the test system is cell proliferation. The assay is classed as cell-based.

Substance trimethylarsineoxide [TMAO] had an IC50 of over 6000 µM.
With Arsenious acid the figure was 10 µM.
